For 28 compounds, IC50 results are on record in ChEMBL document CHEMBL1146930, “Hydantoin derivatives as non-peptidic inhibitors of Ras farnesyl transferase” (Bioorg Med Chem Lett, 2006).

This test addresses Protein farnesyltransferase (Homo sapiens, UniProt P49354+P49356). The test can be described thus: Inhibition of farnesyl transferase. The class given is protein-complex assay.
As a reminder, the IC50 is the point on the concentration scale where inhibition reaches its midpoint. `CSCC[C@H](NC(=O)CN1C(=O)N(Cc2c[nH]cn2)C(=O)C1(C)c1cccc2ccccc12)C(=O)O` (stereo partly drawn) had an IC50 of 61 µM.
Consider `CC1(c2cccc3ccccc23)C(=O)N(CCCn2ccnc2)C(=O)N1Cc1ccc(C(=O)O)cc1` (stereo not drawn), for which the IC50 worked out at 0.2 µM.
Then `CSCC[C@H](NC(=O)CN1C(=O)N(CCc2cnc[nH]2)C(=O)C1(C)c1cccc2ccccc12)C(=O)O` (stereo partly drawn), with 4.8 µM; and `CC1(c2cccc3ccccc23)C(=O)N(CCCn2ccnc2)C(=O)N1Cc1ccc(S(C)(=O)=O)c(C#N)c1` (stereo not drawn), with 0.73 µM.
For `CSc1ccc(CN2C(=O)N(CCCn3ccnc3)C(=O)C2(C)c2cccc3ccccc23)cc1` (stereo not drawn), 0.7 µM corresponded to half-maximal inhibition (IC50).
Then `CC1(c2cccc3ccccc23)C(=O)N(CCCn2ccnc2)C(=O)N1Cc1cccc(Br)c1` (stereo not drawn), with 0.37 µM.
Then `CC1(c2cccc3ccccc23)C(=O)N(CCCn2ccnc2)C(=O)N1Cc1ccccc1C#N` (stereo not drawn), with 1.3 µM; and `CSCc1ccc(CN2C(=O)N(CCCn3ccnc3)C(=O)C2(C)c2cccc3ccccc23)cc1` (stereo not drawn), with 0.21 µM.
Then `CC1(c2cccc3ccccc23)C(=O)N(CCCn2ccnc2)C(=O)N1Cc1cccc(C#N)c1` (stereo not drawn), with 0.09 µM.
On to `CC1(c2cccc3ccccc23)C(=O)N(CCCn2ccnc2)C(=O)N1Cc1ccccc1CNS(C)(=O)=O` (stereo not drawn), for which the IC50 came to 0.5 µM.
Then `CC1(c2cccc3ccccc23)C(=O)N(CCCn2ccnc2)C(=O)N1Cc1cccc(Oc2ccccc2)c1` (stereo not drawn), with 0.72 µM.
Next, `CC1(c2cccc3ccccc23)C(=O)N(CCCn2ccnc2)C(=O)N1Cc1ccc(Br)cc1` (stereo not drawn): 0.16 µM; `CSCC[C@H](NC(=O)CN1C(=O)N(CCCc2c[nH]cn2)C(=O)C1(C)c1cccc2ccccc12)C(=O)O` (stereo partly drawn): 0.8 µM; `CC1(c2cccc3ccccc23)C(=O)N(CCCn2ccnc2)C(=O)N1Cc1ccc(CNS(C)(=O)=O)cc1` (stereo not drawn): 0.35 µM.
Then `CC1(c2cccc3ccccc23)NC(=O)N(CCCc2cnc[nH]2)C1=O` (stereo not drawn), with 40 µM.
In turn, `COC(=O)[C@H](CCSC)NC(=O)CN1C(=O)N(CCCc2cnc[nH]2)C(=O)C1(C)c1cccc2ccccc12` (stereo partly drawn) returned a 50% inhibitory concentration (IC50) of 500 µM.
With `CC1(c2cccc3ccccc23)C(=O)N(CCCn2ccnc2)C(=O)N1Cc1cccc(CNS(C)(=O)=O)c1` (stereo not drawn), the IC50 stood at 1.2 µM.
Then `CC1(c2cccc3ccccc23)NC(=O)N(CCCn2ccnc2)C1=O` (stereo not drawn), with 7.7 µM; and `CCOC(=O)CN1C(=O)N(CCCc2cncn2C)C(=O)C1(C)c1cccc2ccccc12` (stereo not drawn), with 2.8 µM.
`CC1(c2cccc3ccccc23)C(=O)N(CCCn2ccnc2)C(=O)N1Cc1cccc(Cl)c1` (stereo not drawn) came in with an IC50 of 0.24 µM.
Then `COC(=O)[C@H](CCSC)NC(=O)CN1C(=O)N(Cc2cnc[nH]2)C(=O)C1(C)c1cccc2ccccc12` (stereo partly drawn), with 19000 µM.
Then `COC(=O)[C@H](CCSC)NC(=O)CN1C(=O)N(CCc2cnc[nH]2)C(=O)C1(C)c1cccc2ccccc12` (stereo partly drawn), with 2500 µM; and `CC1(c2cccc3ccccc23)C(=O)N(CCCn2ccnc2)C(=O)N1Cc1ccc(C#N)cc1` (stereo not drawn), with 0.9 µM; and `CC1(c2cccc3ccccc23)C(=O)N(CCCn2ccnc2)C(=O)N1Cc1ccc(S(C)(=O)=O)cc1` (stereo not drawn), with 1.1 µM.
Then `CC1(c2cccc3ccccc23)C(=O)N(CCCn2ccnc2)C(=O)N1Cc1cccc(C(F)(F)F)c1` (stereo not drawn), with 1.7 µM; and `CCOC(=O)CN1C(=O)N(CCCn2ccnc2)C(=O)C1(C)c1cccc2ccccc12` (stereo not drawn), with 1 µM; and `CC1(c2cccc3ccccc23)C(=O)N(CCCn2ccnc2)C(=O)N1Cc1ccc(Oc2ccccc2)cc1` (stereo not drawn), with 0.75 µM.
Take `CSc1ccc(CN2C(=O)N(CCCn3ccnc3)C(=O)C2(C)c2cccc3ccccc23)cc1C#N` (stereo not drawn): the IC50 is 0.08 µM. Against the preceding compound, the IC50 is about 9.4-fold lower.
